The test system of the assay is CD2F1 mice, L1210 leukemia ip, survival T/C. The assay is described as follows: NCI In Vivo Anticancer Drug Screen. Data for tumor model L1210 Leukemia (intraperitoneal) in CD2F1 (CDF1) mice. Particulars: higher = longer survival. An outline of the steps:
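Vehicle-treated tumor-bearing mice served as controls (C) for compound-treated mice (T). Reported figure is T divided by C.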

[1] abbreviates: endpoint: mean survival time, dose: 100.0 mg/kg/injection, schedule: Q01DX001 (ip), vehicle: saline.
Setting [2] is: endpoint: mean survival time, dose: 200.0 mg/kg/injection, schedule: Q01DX001 (ip), vehicle: saline.
Setting [3] is: endpoint: mean survival time, dose: 400.0 mg/kg/injection, schedule: Q01DX001 (ip), vehicle: saline.

“And” between values parts separate entries of the source, which are not always exact repeats. Equal entries are not always repeated. Toxic doses and inconclusive results are not listed.

Consider `S=P(N1CC1)(N1CC1)N1CC1`, for which the T/C runs as follows: (endpoint: mean survival time, dose: 0.5 mg/kg/injection, schedule: Q01DX009 (ip), vehicle: saline) 112 % of control; (endpoint: mean survival time, dose: 0.5 mg/kg/injection, schedule: Q03HX024 (ip), vehicle: saline) 112 % of control; (endpoint: mean survival time, dose: 1.0 mg/kg/injection, schedule: Q01DX005 (iv), vehicle: saline) 101 % of control; (endpoint: mean survival time, dose: 1.0 mg/kg/injection, schedule: Q01DX009 (ip), vehicle: saline) 96 % of control and 112 % of control; (endpoint: mean survival time, dose: 1.0 mg/kg/injection, schedule: Q01DX009 (sc), vehicle: saline) 114 % of control; (endpoint: mean survival time, dose: 1.0 mg/kg/injection, schedule: Q03HX008 (ip), vehicle: saline) 106 % of control. Moreover, the T/C by setting is: (endpoint: mean survival time, dose: 1.0 mg/kg/injection, schedule: Q03HX016 (ip), vehicle: saline) 104 % of control; (endpoint: mean survival time, dose: 1.5 mg/kg/injection, schedule: Q01DX009 (ip), vehicle: saline) 111 % of control; (endpoint: mean survival time, dose: 2.0 mg/kg/injection, schedule: Q01DX005 (iv), vehicle: saline) 108 % of control; (endpoint: mean survival time, dose: 2.0 mg/kg/injection, schedule: Q01DX009 (ip), vehicle: saline) 120 % of control and 122 % of control (2×); (endpoint: mean survival time, dose: 2.0 mg/kg/injection, schedule: Q03DX003 (ip), vehicle: saline) 112 % of control; (endpoint: mean survival time, dose: 2.0 mg/kg/injection, schedule: Q03HX008 (ip), vehicle: saline) 118 % of control. Also, the T/C by setting is: (endpoint: mean survival time, dose: 2.0 mg/kg/injection, schedule: Q03HX016 (ip), vehicle: saline) 117 % of control; (endpoint: mean survival time, dose: 2.0 mg/kg/injection, schedule: Q03HX024 (ip), vehicle: saline) 88 % of control; (endpoint: mean survival time, dose: 2.0 mg/kg/injection, schedule: Q04DX003 (ip), vehicle: saline) 101 % of control; (endpoint: mean survival time, dose: 2.5 mg/kg/injection, schedule: Q04DX003 (ip), vehicle: saline) 101 % of control; (endpoint: mean survival time, dose: 4.0 mg/kg/injection, schedule: Q01DX001 (iv), vehicle: saline) 117 % of control; (endpoint: mean survival time, dose: 4.0 mg/kg/injection, schedule: Q01DX001 (sc), vehicle: saline) 103 % of control. In addition, the T/C is, setting by setting: (endpoint: mean survival time, dose: 4.0 mg/kg/injection, schedule: Q01DX007 (ip), vehicle: saline) 158 % of control; (endpoint: mean survival time, dose: 4.0 mg/kg/injection, schedule: Q01DX009 (ip), vehicle: saline) 154 % of control and 166 % of control and 171 % of control; (endpoint: mean survival time, dose: 4.0 mg/kg/injection, schedule: Q01DX009 (oral), vehicle: saline) 122 % of control; (endpoint: mean survival time, dose: 4.0 mg/kg/injection, schedule: Q04DX003 (ip), vehicle: saline) 120 % of control; (endpoint: mean survival time, dose: 6.0 mg/kg/injection, schedule: Q01DX001 (ip), vehicle: saline) 115 % of control; (endpoint: mean survival time, dose: 7.7 mg/kg/injection, schedule: Q01DX001 (ip), vehicle: saline with Tween-80) 112 % of control. For the same molecule, the T/C is 123 % of control and 106 % of control (endpoint: mean survival time, dose: 7.7 mg/kg/injection, schedule: Q01DX001 (ip), vehicle: saline); 110 % of control (endpoint: mean survival time, dose: 8.0 mg/kg/injection, schedule: Q01DX001 (ip), vehicle: saline); 115 % of control (endpoint: mean survival time, dose: 8.0 mg/kg/injection, schedule: Q01DX001 (sc), vehicle: saline); 110 % of control (endpoint: mean survival time, dose: 8.0 mg/kg/injection, schedule: Q01DX007 (ip), vehicle: saline); 114 % of control (endpoint: mean survival time, dose: 8.0 mg/kg/injection, schedule: Q01DX009 (sc), vehicle: saline); 209 % of control (endpoint: mean survival time, dose: 8.0 mg/kg/injection, schedule: Q03DX003 (ip), vehicle: saline). Further, the T/C is, setting by setting: (endpoint: mean survival time, dose: 8.0 mg/kg/injection, schedule: Q04DX003 (ip), vehicle: saline) 179 % of control and 183 % of control; (endpoint: mean survival time, dose: 8.0 mg/kg/injection, schedule: Q08DX002 (ip), vehicle: saline) 122 % of control; (endpoint: mean survival time, dose: 10.0 mg/kg/injection, schedule: Q04DX003 (ip), vehicle: saline) 153 % of control; (endpoint: mean survival time, dose: 10.9 mg/kg/injection, schedule: Q01DX001 (ip), vehicle: saline with Tween-80) 122 % of control; (endpoint: mean survival time, dose: 10.9 mg/kg/injection, schedule: Q01DX001 (ip), vehicle: saline) 122 % of control and 124 % of control; (endpoint: mean survival time, dose: 12.0 mg/kg/injection, schedule: Q01DX001 (ip), vehicle: saline) 153 % of control. Also, the T/C is 161 % of control (endpoint: mean survival time, dose: 15.0 mg/kg/injection, schedule: Q01DX001 (ip), vehicle: saline); 154 % of control (endpoint: mean survival time, dose: 16.0 mg/kg/injection, schedule: Q01DX001 (ip), vehicle: saline); 155 % of control (endpoint: mean survival time, dose: 16.0 mg/kg/injection, schedule: Q01DX001 (iv), vehicle: saline); 96 % of control (endpoint: mean survival time, dose: 16.0 mg/kg/injection, schedule: Q01DX009 (ip), vehicle: saline); 120 % of control (endpoint: mean survival time, dose: 16.0 mg/kg/injection, schedule: Q01DX009 (oral), vehicle: saline); 95 % of control (endpoint: mean survival time, dose: 16.0 mg/kg/injection, schedule: Q04DX003 (ip), vehicle: saline). In addition, the T/C is, setting by setting: (endpoint: mean survival time, dose: 20.0 mg/kg/injection, schedule: Q04DX003 (ip), vehicle: saline) 124 % of control; (endpoint: mean survival time, dose: 22.4 mg/kg/injection, schedule: Q01DX001 (ip), vehicle: saline with Tween-80) 163 % of control; (endpoint: mean survival time, dose: 32.0 mg/kg/injection, schedule: Q01DX001 (ip), vehicle: saline with Tween-80) 89 % of control; (endpoint: mean survival time, dose: 32.0 mg/kg/injection, schedule: Q01DX001 (oral), vehicle: saline) 154 % of control; (endpoint: median survival time, dose: 1.56 mg/kg/injection, schedule: Q01DX009 (ip), vehicle: saline) 117 % of control; (endpoint: median survival time, dose: 3.0 mg/kg/injection, schedule: Q01DX009 (ip), vehicle: water) 97 % of control. Also, the T/C (endpoint: median survival time, dose: 3.13 mg/kg/injection, schedule: Q01DX009 (ip), vehicle: saline) was 164 % of control and 178 % of control; the T/C (endpoint: median survival time, dose: 6.0 mg/kg/injection, schedule: Q01DX009 (ip), vehicle: water) was 95 % of control; the T/C (endpoint: median survival time, dose: 8.0 mg/kg/injection, schedule: Q01DX009 (ip), vehicle: water) is 88 % of control; the T/C (endpoint: median survival time, dose: 12.5 mg/kg/injection, schedule: Q01DX009 (ip), vehicle: saline) was 88 % of control and 107 % of control; the T/C (endpoint: median survival time, dose: 16.0 mg/kg/injection, schedule: Q01DX009 (ip), vehicle: water) was 77 % of control; the T/C (endpoint: median survival time, dose: 20.0 mg/kg/injection, schedule: Q01DX001 (ip), vehicle: saline) was 172 % of control. Also, the T/C (endpoint: median survival time, dose: 25.0 mg/kg/injection, schedule: Q01DX001 (ip), vehicle: saline) was 193 % of control.
On to `CC(=O)c1cc(O)ccc1O`, for which the T/C under setting [1] was 101 % of control, the T/C under setting [2] was 98 % of control and the T/C under setting [3] was 98 % of control.
Regarding `COc1cc2c(cc1OC)C(Cc1ccccc1[N+](=O)[O-])=NCC2`, the T/C under setting [1] was 101 % of control, the T/C under setting [2] was 94 % of control and the T/C under setting [3] is 95 % of control.
For the molecule `NC(=O)N/N=C/c1ccccc1N`, the T/C reads like this: (endpoint: mean survival time, dose: 100.0 mg/kg/injection, schedule: Q04DX003 (ip), vehicle: saline with Tween-80) 97 % of control; (endpoint: mean survival time, dose: 200.0 mg/kg/injection, schedule: Q04DX003 (ip), vehicle: saline with Tween-80) 108 % of control; (endpoint: mean survival time, dose: 400.0 mg/kg/injection, schedule: Q04DX003 (ip), vehicle: saline with Tween-80) 98 % of control.
For the molecule `CCSC(=S)S`, the T/C (endpoint: mean survival time, dose: 75.0 mg/kg/injection, schedule: Q04DX003 (ip), vehicle: saline) is 104 % of control; the T/C (endpoint: mean survival time, dose: 150.0 mg/kg/injection, schedule: Q04DX003 (ip), vehicle: saline) was 98 % of control; the T/C (endpoint: mean survival time, dose: 300.0 mg/kg/injection, schedule: Q04DX003 (ip), vehicle: saline) is 104 % of control.

These data come from PubChem BioAssay AID256 (DTP/NCI, 2004).
